# Reference: patent US5294617A, “Angiotensin II receptor blocking 2,3,6 substituted quinazolinones” (American Cyanamid Company, priority 1993, dated 1994)
# “And” between values parts separate entries of the source, which are not always exact repeats. Identical values can stand only once.
# System: ANGIOTENSIN II (AII) VASOPRESSOR RESPONSE
# Assay: AII Challenge: angiotensin II vasopressor response in conscious spontaneously hypertensive rats
# Format: in vivo, Conscious Male Okamoto-Aoki SHR (rat)
# Details: 10 mg/kg i.v.; for % Inhibition / Average Change: SHR n=2; for Response After AII / Response Change / Control Before AII: individual rat, SHR
# From the text: By administering a compound of this invention to a rat, and then challenging with angiotensin II, a blockage of the vasopressor response is realized.
# Conscious Male Okamoto-Aoki SHR, 16-20 weeks old, weighing approximately 330 g are purchased from Charles River Labs (Wilmington, Mass.). Conscious rats are restrained in a supine position with elastic tape. The area at the base of the tail is locally anesthetized by subcutaneous infiltration with 2% procaine. The ventral caudal artery and vein are isolated, and a cannula made of polyethylene (PE) 10-20 tubing (fused together by heat) is passed into the lower abdominal aorta and vena cava, respectively. The cannula is secured, heparinized (1,000 I.U./ml), sealed and the wound is closed. The animals are placed in plastic restraining cages in an upright position. The cannula is attached to a Statham P23Db pressure transducer, and pulsatile blood pressure is recorded to 10-15 minutes with a Gould Brush recorder. (Chan et al., (Drug Development Res., 18:75-94, 1989).
# Angiotensin II (human sequence, Sigma Chem. Co., St. Louis, Mo.) of 0.05 and 0.1 ug/kg i.v. is injected into all rats (predosing response). Then a test compound, vehicle or a known angiotensin II antagonist is administered i.v., i.p. or orally to each set of rats. The two doses of angiotensin II are given to each rat again at 30, 60, 90, 120, 180, 240 and 300 minutes post dosing the compound or vehicle. The vasopressor response of angiotensin II is measured for the increase in systolic blood pressure in mmHg. The percentage of antagonism or blockade of the vasopressor response of angiotensin II by a compound is calculated using the vasopressor response (increase in systolic blood pressure) of angiotensin II of each rat predosing the compound as 100%. A compound is considered active if at 30 mg/kg i.v. it antagonized at least 50% of the response.
# [1] = AII 0.05 mcg/kg IV, 30 min post dose
# [2] = AII 0.05 mcg/kg IV, 60 min post dose
# [3] = AII 0.05 mcg/kg IV, 90 min post dose
# [4] = AII 0.05 mcg/kg IV, 120 min post dose
# [5] = AII 0.05 mcg/kg IV, 180 min post dose
# [6] = AII 0.05 mcg/kg IV, 240 min post dose
# [7] = AII 0.05 mcg/kg IV, 300 min post dose
# [8] = AII 0.1 mcg/kg IV, 30 min post dose
# [9] = AII 0.1 mcg/kg IV, 60 min post dose
# [10] = AII 0.1 mcg/kg IV, 90 min post dose
# [11] = AII 0.1 mcg/kg IV, 120 min post dose
# [12] = AII 0.1 mcg/kg IV, 180 min post dose
# [13] = AII 0.1 mcg/kg IV, 240 min post dose
# [14] = AII 0.1 mcg/kg IV, 300 min post dose
# [15] = AII 0.05 mcg/kg IV, 30 min post dose, 10 mg/kg
# [16] = AII 0.05 mcg/kg IV, 60 min post dose, 10 mg/kg
# [17] = AII 0.05 mcg/kg IV, 90 min post dose, 10 mg/kg
# [18] = AII 0.05 mcg/kg IV, 180 min post dose, 10 mg/kg
# [19] = AII 0.05 mcg/kg IV, 240 min post dose, 10 mg/kg
# [20] = AII 0.05 mcg/kg IV, 300 min post dose, 10 mg/kg
# [21] = AII 0.1 mcg/kg IV, 30 min post dose, 10 mg/kg
# [22] = AII 0.1 mcg/kg IV, 60 min post dose, 10 mg/kg
# [23] = AII 0.1 mcg/kg IV, 90 min post dose, 10 mg/kg
# [24] = AII 0.1 mcg/kg IV, 120 min post dose, 10 mg/kg
# [25] = AII 0.1 mcg/kg IV, 180 min post dose, 10 mg/kg
# [26] = AII 0.1 mcg/kg IV, 240 min post dose, 10 mg/kg
# [27] = AII 0.1 mcg/kg IV, 300 min post dose, 10 mg/kg
compound,measurement,setting,value
"CCCCc1nc2ccc([C@H]3C[C@H](CO)ON3C)cc2c(=O)n1Cc1ccc(-c2ccccc2-c2nnn[nH]2)cc1 (relative stereo) [Example 16, TRANS-2-butyl-6-[5-(hydroxymethyl)-2-methyl-3-isoxazolidinyl]-3-[[2'-(1H-tetrazol-5-yl)[1,1'-biphenyl]-4-yl]methyl]-4(3H)-quinazolinone]",% Inhibition,[1],85%
same,Average Change,[1],8 mmHg
same,% Inhibition,[2],76%
same,Average Change,[2],12.5 mmHg
same,% Inhibition,[3],62%
same,Average Change,[3],20 mmHg
same,% Inhibition,[4],67%
same,Average Change,[4],17.5 mmHg
same,% Inhibition,[5],50%
same,Average Change,[5],26.5 mmHg
same,% Inhibition,[6],50%
same,Average Change,[6],26.5 mmHg
same,% Inhibition,[7],19%
same,Average Change,[7],42.5 mmHg
same,% Inhibition,[8],81%
same,Average Change,[8],10 mmHg
same,% Inhibition,[9],79%
same,Average Change,[9],11.5 mmHg
same,% Inhibition,[10],77%
same,Average Change,[10],12.5 mmHg
same,% Inhibition,[11],68%
same,Average Change,[11],17.5 mmHg
same,% Inhibition,[12],54%
same,Average Change,[12],25 mmHg
same,% Inhibition,[13],54%
same,Average Change,[13],25 mmHg
same,% Inhibition,[14],26%
same,Average Change,[14],40 mmHg
same,Response After AII,[15],198 mmHg and 190 mmHg
same,Response Change,[15],3 mmHg and 13 mmHg
same,Response After AII,[16],200 mmHg and 180 mmHg
same,Response Change,[16],5 mmHg and 20 mmHg
same,Response After AII,[3],190 mmHg
same,Response After AII,[17],215 mmHg
same,Response Change,[17],10 mmHg and 30 mmHg
same,Response After AII,[4],210 mmHg
same,Response Change,"AII 0.05 mcg/kg IV, 120 min post dose, 10 mg/kg",15 mmHg and 20 mmHg
same,Response After AII,[5],218 mmHg
same,Response After AII,[18],195 mmHg
same,Response Change,[18],23 mmHg and 30 mmHg
same,Response After AII,[6],218 mmHg
same,Response After AII,[19],195 mmHg
same,Response Change,[19],23 mmHg and 30 mmHg
same,Response After AII,[7],230 mmHg
same,Response After AII,[20],225 mmHg
same,Response Change,[20],35 mmHg and 50 mmHg
same,Response After AII,[21],205 mmHg and 175 mmHg
same,Response Change,[21],15 mmHg and 5 mmHg
same,Response After AII,[22],210 mmHg and 173 mmHg
same,Response Change,[22],15 mmHg and 8 mmHg
same,Response After AII,[10],210 mmHg
same,Response After AII,[23],185 mmHg
same,Response Change,[23],10 mmHg and 15 mmHg
same,Response After AII,[24],220 mmHg and 200 mmHg
same,Response Change,[24],20 mmHg and 15 mmHg
same,Response After AII,[25],215 mmHg and 205 mmHg
same,Response Change,[25],15 mmHg and 35 mmHg
same,Response After AII,[26],215 mmHg and 205 mmHg
same,Response Change,[26],15 mmHg and 35 mmHg
same,Response After AII,[27],250 mmHg and 230 mmHg
same,Response Change,[27],30 mmHg and 50 mmHg
same,Control Before AII,"before AII 0.05 mcg/kg IV, 30 min post dose, 10 mg/kg",195 mmHg and 177 mmHg
same,Control Before AII,"before AII 0.05 mcg/kg IV, 60 min post dose, 10 mg/kg",195 mmHg and 160 mmHg
same,Control Before AII,"before AII 0.05 mcg/kg IV, 90 min post dose, 10 mg/kg",205 mmHg and 160 mmHg
same,Control Before AII,"before AII 0.05 mcg/kg IV, 120 min post dose, 10 mg/kg",195 mmHg and 190 mmHg
same,Control Before AII,"before AII 0.05 mcg/kg IV, 180 min post dose, 10 mg/kg",195 mmHg and 165 mmHg
same,Control Before AII,"before AII 0.05 mcg/kg IV, 240 min post dose, 10 mg/kg",195 mmHg and 165 mmHg
same,Control Before AII,"before AII 0.05 mcg/kg IV, 300 min post dose, 10 mg/kg",195 mmHg and 175 mmHg
same,Control Before AII,"before AII 0.1 mcg/kg IV, 30 min post dose, 10 mg/kg",190 mmHg and 170 mmHg
same,Control Before AII,"before AII 0.1 mcg/kg IV, 60 min post dose, 10 mg/kg",195 mmHg and 165 mmHg
same,Control Before AII,"before AII 0.1 mcg/kg IV, 90 min post dose, 10 mg/kg",200 mmHg and 170 mmHg
same,Control Before AII,"before AII 0.1 mcg/kg IV, 120 min post dose, 10 mg/kg",200 mmHg and 185 mmHg
same,Control Before AII,"before AII 0.1 mcg/kg IV, 180 min post dose, 10 mg/kg",200 mmHg and 170 mmHg
same,Control Before AII,"before AII 0.1 mcg/kg IV, 240 min post dose, 10 mg/kg",200 mmHg and 170 mmHg
same,Control Before AII,"before AII 0.1 mcg/kg IV, 300 min post dose, 10 mg/kg",220 mmHg and 180 mmHg
